Legend:
[1] = DPPH assay (ability to scavenge nitrogen radicals); design: DPPH assay % inhibition: concentration or dose not given beside the values
Protocol: The samples were mixed with DPPH (23.6 μg/ml, in ethanol), and incubated in dark at 37° C. for 30 minutes. The DPPH absorbance reduced by each sample was measured at 517 nm. Vitamin C (Sigma-Aldrich, St. Louis, Mo.) was used as a control, and the DPPH inhibition value (%) was calculated using the following equation: Scavenging activity (%)=[Absmax(Vit.C)−Abssample]/[Absmax(Vit.C)−Absmin(Vit.C)]×100. Equation 1
(§1) The antioxidant activities of the verbenone derivatives of the present invention were measured by the following two different chemical reactions: (1) a single electron transfer-based assay that is a […] [DPPH] assay that measures a decrease in DPPH acting as a free radical generator and a termination probe; and (2) a hydrogen atom transfer assay that is an oxygen radical absorbance capacity [[…]] assay that measures the competitive reaction kinetics of a peroxyl radical generator (AAPH; 2,2′-azobis-(2-methylpropionamide)-dihydrochloride) and each sample acting as an antioxidant for oxidizable fluorescent probe (fluorescein).

[2] = Oxygen radical absorbance capacity (ORAC) assay; design: ORAC assay TE25 (trolox equivalents): dose or concentration left out as unconfirmed; conditions: for ORAC assay TE25 (trolox equivalents): net AUC sample / net AUC trolox
Protocol: An ORAC assay was performed as disclosed in the literature (Huang, D. et al., J. Agric. Food Chem., 53, 1841-56, 2005).
AAPH (60 mM) and fluorescein (50 nM) were prepared in buffer (75 mM phosphate buffer, pH7.4) without a sample or a sample or a standard (Trolox). Each of the samples and the standard was suspended in a solution of 7% RMCD (randomly methylated beta-cyclodextrin) in 50% acetone. RMCD was used to increase the solubility of oil-soluble samples. Each sample was sufficiently mixed with fluorescein solution (66 nM, 190 μl) by shaking for 5 seconds. After incubation at 37° C. for 10 minutes, AAPH (500 mM, 30 μl) was quickly added to each sample, and a decrease in the fluorescence was measured using a fluorescence microplate reader (Ex=485 nm, Em=530 nm; SpectraMax GeminiEM, Molecular Devices, Sunnyvale, Calif.) at 37° C. at 5-min intervals for 9 hours. To quantify the activity of scavenging peroxyl radicals, AUC (area-under-the-curve) was calculated according to the following equation 2, and net AUC was calculated according to the following equation 3, and the TE (trolox equivalents) of each sample was calculated according to the following equation 4 based on a standard curve of net AUC plotted according to an increase in trolox concentration. AUC=(0.5+f1/f0+f2/f0+f3/f0+ . . . +fn−2/f0+fn−1/f0+fn/f0)×5, Equation 2
wherein f0 is the first fluorescence at 0 min and time I. Net AUC=AUCsample−AUCblank. Equation 3 TE(trolox equivalents) of each sample=[netAUCsample […]]/[net AUCtrolox […]]. Equation 4
as §1

[3] = tested on: cortical neurons; assay: Oxygen-glucose deprivation (OGD)/reoxygenation neuronal injury, LDH release; type: cell-based; conditions: rat cortical neurons, FIG. 1
Protocol: (§2) Cortical neurons (5×10^5 cells/ml) were isolated from fetal SD rats (16-17 days). Specifically, brain cortex was cut, and cells were isolated from the tissue by repeated trituration using a Pasteur pipette in buffer (Hanks' Balanced Salt Solution, HBSS). The cell suspension (1.8×10^3 cells/mm^2) was dispensed on a plate pretreated with poly-D-lysine ([…])/laminin ([…]). The cells were placed in 10% FBS-containing NBM medium, and incubated in a […]/5% CO2 atmosphere at 37° C. After 15-16 days of the incubation, the experiment was performed.
In order to induce hypoxic-ischemic symptoms in vitro, the incubated cells were placed in an anoxic chamber (partial oxygen pressure <2 mmHg). The cells were incubated glucose-free DMEM while being bubbled with an anaerobic gas mixture (95% N2 and 5% CO2) for 30 minutes to remove residual oxygen, and were incubated at 37° C. for 90 minutes for oxygen deprivation. After 90 minutes, the exposed solution was replaced with 25 mmol/L glucose-containing DMEM medium to stop the OGD reaction, and the cells were restored to normal oxygen conditions. Control cells not exposed to OGD were incubated in glucose (25 mmol/L)-containing DMEM medium provided with an aerobic gas mixture (95% air and 5% CO2). The cells were treated with each sample 30 minutes before, and during the entire period of OGD/re-oxygenation.
(§3) In order to measure cell injury or cell death, the amount of LDH released into the medium was measured using a cell viability measurement kit (Sigma-Aldrich, St. Louis, Mo.). Cell viability was expressed as the percentage of LDH relative to the total cellular LDH level measured in sister cultures lysed by freezing-thawing after the experiment.

[4] = tested on: cortical neurons; assay: NMDA-induced excitotoxicity, LDH release; type: cell-based, SD rats; design: dose or concentration left out as unconfirmed; conditions: cultured cortical neuronal cells; sample 30 min before NMDA; lower than MK-801; FIG. 2
Protocol: as §2
After incubation on the plate for 15-18 days, the cortical neurons were exposed to NMDA ([…]) in a solution (Mg^2+-free Earle's balanced salt solution (EBSS); containing 1.8 mM CaCl2 and 10 mM glycine) for 10 minutes. After exposure, the cells were washed with MgSO4-containing EBSS solution, and incubated in 25 mmol/L glucose-containing DMEM medium in a 5% CO2 incubator at 37° C. 30 Minutes before treatment with NMDA, the cells were treated with each sample […].
as §3

[5] = tested on: cortical neurons; assay: Intracellular levels (DCF fluorescence) of reactive oxygen species after OGD/reoxygenation; type: cell-based, SD rats; conditions: FIG. 3
Protocol: In order to examine the direct radical scavenging activities of the samples, at 1 hour after reoxygenation, the cells were stained with the fluorescent probe H2DCF-DA (2,7-dihydroichlorofluorescein diacetate) that is widely used to measure intracellular oxidative stress. After 2 hours, the cells were washed in EBSS buffer (containing 25 mM glucose, 1.8 mM CaCal2, 1.2 mM MgSO4 and 2.5 mM probenecid (pH7.4)), and the fluorescence of DCF was measured with a fluorescence microplate reader (SpectraMax GeminiEM; Ex=485 nm, Em=530 nm) or a fluorescence microscope (DM IL HC Fluo, Leica, Wetzlar, Germany) equipped with a digital camera (DFC420C, Leica, Wetzlar Germany). The fluorescence intensity was compensated with autofluorescence (i.e., the fluorescence of cells not loaded with H2DCF-DA).

[6] = tested on: focal ischemia; conditions: rats and gerbils; literature; cited from earlier work

| SMILES | DPPH scavenging activity (in words) ([1]; compared to vitamin C at the same concentration) | DPPH assay % inhibition ([1]; relative to vitamin C (Equation 1)) | ORAC assay Net AUC [2] | ORAC assay TE25 (trolox equivalents) [2] | neuronal injury induced by OGD (LDH release) ([3]; OGD/reoxygenation, comparable to MK801) | cytotoxicity [3] | NMDA-induced neuronal injury [4] | OGD-induced intracellular oxidative stress (DCF fluorescence) [5] | peroxyl radical scavenging activity in ORAC assay (in words) ([2]; compared to trolox) | melting point | time of administration after onset of focal ischemia giving a neuron protection effect [6] |
| --- | --- | --- | --- | --- | --- | --- | --- | --- | --- | --- | --- |
| CC1(C)[C@@H]2C[C@H]1C(C=Cc1ccc(O)c(O)c1)=CC2=O [Compound 3c, (1S,5R)-4-(3,4-dihydroxystyryl)-6,6-dimethylbicyclo[3.1.1]hept-3-en-2-one] | stronger scavenging activity compared to vitamin C | 91.62 ± 3.27% | 131.29 ± 11.97 | 3.11 ± 0.11 | significantly reduced neuronal injury | showed no cytotoxicity | significantly reduced NMDA-induced neuronal injury | reduced OGD-induced intracellular oxidative stress |  |  |  |
| CC1(C)[C@@H]2C[C@H]1C(C=Cc1ccc(-n3cccc3)cc1)=CC2=O [Compound 4e, (1S,5R)-4-(4-(1H-pyrrol-1-yl)styryl)-6,6-dimethylbicyclo[3.1.1]hept-3-en-2-one] |  |  | 98.31 ± 0.48 | 2.19 ± 0.01 |  |  |  |  | strong peroxyl radical scavenging activities compared to trolox | 146 to 148 °C |  |
| C[C@]12N[C@H](Cc3ccccc31)c1ccccc12 [MK-801] |  |  |  |  |  |  |  |  |  |  | ≤ 1 h |

— patent US10710951B2, “Pharmaceutical composition containing verbenone derivative for treating or preventing neurodegenerative disease” (KOREA UNIVERSITY RESEARCH AND BUSINESS FOUNDATION, priority 2012, dated 2020)
